Assays:
Assay type in all cases: cell-based
[1] = molecular target: T1, CquiOR1 (CquiOR1•CquiOrco) (Culex quinquefasciatus, UniProt S5RQ84); assay: two-electrode voltage clamp, Xenopus oocytes, inward current; conditions: agonist; co-expressed CquiOrco; -70 mV
T1 sequence (S5RQ84 1-391): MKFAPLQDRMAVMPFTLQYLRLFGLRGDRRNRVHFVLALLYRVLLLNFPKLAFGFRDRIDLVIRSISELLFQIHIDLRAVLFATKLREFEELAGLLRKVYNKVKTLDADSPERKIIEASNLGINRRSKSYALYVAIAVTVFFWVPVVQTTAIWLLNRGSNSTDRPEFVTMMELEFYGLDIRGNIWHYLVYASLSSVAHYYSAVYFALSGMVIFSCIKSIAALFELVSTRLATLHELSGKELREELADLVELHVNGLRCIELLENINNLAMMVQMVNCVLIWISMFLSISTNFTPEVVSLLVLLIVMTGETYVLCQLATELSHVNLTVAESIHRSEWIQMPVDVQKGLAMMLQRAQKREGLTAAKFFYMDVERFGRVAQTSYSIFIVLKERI

[2] = molecular target: T1, CquiOR1 (CquiOR1•CquiOrco); assay: Xenopus oocyte recording, UM laboratory; conditions: agonist; co-expressed CquiOrco; positive control
[3] = molecular target: T2, CquiOR44 (CquiOR44•CquiOrco) (Culex quinquefasciatus, UniProt S5RSX8); assay: two-electrode voltage clamp, Xenopus oocytes, inward current; conditions: agonist; co-expressed CquiOrco; -70 mV
T2 sequence (S5RSX8 1-423): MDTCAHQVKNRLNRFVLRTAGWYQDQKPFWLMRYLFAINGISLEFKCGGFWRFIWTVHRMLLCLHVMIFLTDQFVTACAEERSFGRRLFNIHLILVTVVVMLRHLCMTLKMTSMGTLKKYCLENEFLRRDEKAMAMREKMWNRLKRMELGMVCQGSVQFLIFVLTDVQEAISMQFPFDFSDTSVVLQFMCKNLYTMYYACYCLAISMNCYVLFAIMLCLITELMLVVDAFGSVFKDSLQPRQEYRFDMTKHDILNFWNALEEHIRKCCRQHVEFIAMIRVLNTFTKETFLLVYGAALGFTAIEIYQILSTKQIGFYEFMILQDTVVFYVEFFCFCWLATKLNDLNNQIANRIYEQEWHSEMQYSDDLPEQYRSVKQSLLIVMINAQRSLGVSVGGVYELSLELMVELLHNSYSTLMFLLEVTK

[4] = molecular target: T3, CquiOR73 (CquiOR73•CquiOrco) (Culex quinquefasciatus, UniProt S5R433); assay: as above; conditions: agonist; co-expressed CquiOrco; -70 mV
T3 sequence (S5R433 1-396): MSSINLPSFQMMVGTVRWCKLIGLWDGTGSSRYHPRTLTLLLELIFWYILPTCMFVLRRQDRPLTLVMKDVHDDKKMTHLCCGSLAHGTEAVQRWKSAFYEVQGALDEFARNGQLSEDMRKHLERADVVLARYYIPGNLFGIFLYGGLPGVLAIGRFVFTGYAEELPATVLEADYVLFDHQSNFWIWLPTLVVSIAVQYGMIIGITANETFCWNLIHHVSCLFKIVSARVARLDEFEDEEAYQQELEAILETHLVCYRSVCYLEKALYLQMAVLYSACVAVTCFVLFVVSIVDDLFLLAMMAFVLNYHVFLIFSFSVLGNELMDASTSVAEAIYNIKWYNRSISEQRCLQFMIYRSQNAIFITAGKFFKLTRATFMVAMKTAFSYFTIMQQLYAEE

CCCCCCO [1-hexanol]
two-electrode voltage clamp, Xenopus oocytes, inward current [1]: when CquiOR1 was challenged with 1-hexanol, 1-octen-3-ol, 2-phenoxyethanol, or benzaldehyde

C=CC(O)CCCCC (stereo not drawn) [1-octen-3-ol]
two-electrode voltage clamp, Xenopus oocytes, inward current [1]: when CquiOR1 was challenged with 1-hexanol, 1-octen-3-ol, 2-phenoxyethanol, or benzaldehyde

CCc1ccc(O)cc1 [4-ethylphenol]
Xenopus oocyte recording, UM laboratory [2]: medium to large responses when challenged with indole, 4-ethylphenol, 4-methylphenol, phenol

CC1(C)C(=O)[C@@]2(C)CC[C@@H]1C2 [(+)-fenchone]
two-electrode voltage clamp, Xenopus oocytes, inward current [3]: no chiral discrimination as responses to (+)- and (−)-fenchone did not differ

CC1(C)C(=O)[C@]2(C)CC[C@H]1C2 [(−)-fenchone]
two-electrode voltage clamp, Xenopus oocytes, inward current [3]: no chiral discrimination as responses to (+)- and (−)-fenchone did not differ

CC(=O)c1ccccc1 [acetophenone]
Xenopus oocyte recording, UM laboratory [2]: phenol, acetophenone, benzaldehyde, and 6-methyl-5-hepten-2-one

C=CCc1ccc(O)c(OC)c1 [eugenol]
two-electrode voltage clamp, Xenopus oocytes, inward current [4]: eugenol was the best ligand identified for this OR

CCCCCCCCOC(C)=O [octyl acetate]
two-electrode voltage clamp, Xenopus oocytes, inward current [4]: no significant response to the majority of compounds in the panel, except for octyl acetate

CC1CCC(C(C)(C)O)C(O)C1 (stereo not drawn) [p-menthane-3,8-diol]
two-electrode voltage clamp, Xenopus oocytes, inward current [3]: including known natural repellents like p-menthane-3,8-diol

— article PMC3800014 (Journal of insect physiology, 2013)
